# Test results: US11441144B2, “Methods of polynucleotide preparation using multivalent cation salt compositions” (Geron Corporation, priority 2015, dated 2022)
# Assay: Solubility of precipitate in 0.1M NaOH
# Assay type: physicochemical
# Settings: salts precipitated in a large excess of salt reagent
# Source text: The crystallization or precipitation of divalent or trivalent forms of Imetelstat was investigated using a large excess of inorganic salts of interest (900 equivalents, weight base). […] Three types of Imetelstat solution: crude Imetelstat solution (ammonium salt), purified Imetelstat (triethylammonium (TEA) salt form), and Imetelstat sodium (Na salt form), were mixed with each salt solution.
# The solubilities of the precipitates isolated under the conditions of large excess of salt regent were initially investigated using the following solvents: water, acetonitrile, MeOH, EtOH, IPA (isopropyl alcohol), 0.1M NaOH, 0.1M HCl, 1M NaCl, and NMP.
# (see Table 2). Solubility studies of Imetelstat precipitate obtained from a large excess of magnesium salt reagent were conducted in 1M NaCl solutions at different concentrations (2 mg/mL to 6 mg/mL) and under different pH conditions (pH 8, 9, 10, 11, 12) and analyzed by HPLC (see chromatograms of FIG. 1).
substance,measurement,value
BaCl2,Solubility in a 0.1M NaOH and 1M NaCl solution,soluble
